Measured values taken from patent US20060063755A1, “Loxapine analogs and methods of use thereof” (priority 2004, published 2006).
Where “and” joins values, the source holds several entries; their conditions need not be identical. Equal entries are not always repeated.

How the values were obtained:
alpha 2 receptors = experiment: Alpha 2 receptor binding assay; conditions: read-out: Ki Alpha2
Description: (§1) Binding assays were performed using the disclosed sleep-inducing agents and derivatives selected from those listed in Table 1 in competitive binding assays with known standards for the H1 histamine receptor, and the M1, M2, and M3 muscarinic receptors, alpha 1 and alpha 2 receptors, and D1 and D2 receptors.

M2 muscarinic receptor = target: T1, M2 muscarinic receptor (Homo sapiens, UniProt P08172); experiment: M2 binding assay, [3H]-scopolamine N-methyl chloride, CHO cells; conditions: human recombinant
T1 construct: purchased PerkinElmer, Inc., Wellesley, Mass; host or cells: CHO cells
T1 sequence (P08172 1-466): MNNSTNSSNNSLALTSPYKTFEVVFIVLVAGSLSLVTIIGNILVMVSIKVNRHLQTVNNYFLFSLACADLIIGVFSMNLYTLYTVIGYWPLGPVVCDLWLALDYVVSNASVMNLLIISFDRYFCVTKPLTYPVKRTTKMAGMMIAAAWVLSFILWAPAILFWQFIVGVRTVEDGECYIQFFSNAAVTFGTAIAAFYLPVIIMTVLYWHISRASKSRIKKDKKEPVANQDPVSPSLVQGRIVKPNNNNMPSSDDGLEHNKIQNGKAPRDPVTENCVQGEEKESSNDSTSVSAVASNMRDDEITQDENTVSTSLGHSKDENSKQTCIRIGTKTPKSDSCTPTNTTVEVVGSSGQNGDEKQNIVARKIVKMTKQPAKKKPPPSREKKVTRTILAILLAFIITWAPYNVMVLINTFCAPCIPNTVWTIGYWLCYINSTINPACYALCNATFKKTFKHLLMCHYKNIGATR

M1 muscarinic receptor = target: T2, M1 muscarinic receptor (Homo sapiens, UniProt P11229); experiment: M1 binding assay, [3H]-scopolamine N-methyl chloride, CHO cells; conditions: human recombinant
T2 construct: purchased PerkinElmer, Inc., Wellesley, Mass; host or cells: CHO cells
T2 sequence (P11229 1-460): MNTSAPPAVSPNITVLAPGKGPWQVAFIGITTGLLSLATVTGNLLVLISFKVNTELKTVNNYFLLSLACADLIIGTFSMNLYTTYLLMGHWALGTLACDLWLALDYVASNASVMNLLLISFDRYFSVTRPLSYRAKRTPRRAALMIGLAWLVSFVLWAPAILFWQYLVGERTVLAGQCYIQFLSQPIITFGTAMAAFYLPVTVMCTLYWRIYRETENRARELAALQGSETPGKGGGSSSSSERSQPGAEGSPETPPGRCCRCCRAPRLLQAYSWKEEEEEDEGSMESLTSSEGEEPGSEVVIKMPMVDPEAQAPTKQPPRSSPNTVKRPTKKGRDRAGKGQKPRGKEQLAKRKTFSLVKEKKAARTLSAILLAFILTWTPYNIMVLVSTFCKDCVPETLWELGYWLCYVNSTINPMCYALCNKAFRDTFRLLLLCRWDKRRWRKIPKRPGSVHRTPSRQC

hERG channel = hERG channel (Homo sapiens, UniProt Q12809); experiment: hERG channel current block, whole cell recording in HEK293 cells; type: cell-based; conditions: HEK293 cells expressing hERG
Description: Other in vitro selection criteria for loxapine analogs of the invention includes hERG binding.
(Brown and Rampe (2000)).
In one embodiment of the HERG assay, the positive control (i.e., reference compound) is terfenadine (Sigma, St. Louis Mo.), which has been shown, at a concentration of 60 nM, to block HERG current by approximately 75%. Test compounds are delivered in HEPES-buffered physiological saline (HB-PS)+0.1% dimethyl sulfoxide (DMSO).
Clin. Exp. Allergy 29 Suppl 3, 174-181.
If the final DMSO concentration must be greater than 0.3%, to reach a specified test article concentration, a separate vehicle control test with an n>2 was performed at the highest final DMSO concentration.
Each cell acted as its own control. […] One concentration of the positive control article (60 nM terfenadine) was applied to two cells (n≧2).

M3 muscarinic receptor = target: T3, M3 muscarinic receptor (Homo sapiens, UniProt P20309); experiment: M3 binding assay, [3H]-scopolamine N-methyl chloride, CHO cells; conditions: human recombinant
T3 construct: purchased PerkinElmer, Inc., Wellesley, Mass; host or cells: CHO cells

H1 histamine receptor = target: T4, H1 histamine receptor (Bos taurus, UniProt P30546); experiment: H1 competitive binding assay, [3H]pyrilamine, bovine cerebellar membranes; conditions: bovine cerebellar membrane
T4 construct: the receptors were obtained from bovine cerebellar membrane tissue; from tissue; host or cells: bovine cerebellar membranes

Dopamine, D1 = Dopamine, D1 (Homo sapiens, UniProt P21728); experiment: Dopamine D1 (human recombinant) binding assay
Description: as §1
Dopamine, D1 (human recombinant) binding assay was performed according to published procedures. See, e.g., Jarvie, et al. J. Recept Res., 13(1-4): 573-90 (1993); and Billard, et al. Life Sciences, 35(18): 1885-93 (1984), with modifications

alpha 1 receptors = experiment: Alpha 1 receptor binding assay; conditions: read-out: Ki Alpha1
Description: as §1

D2 receptors = D2 receptors (Homo sapiens, UniProt P14416); experiment: Dopamine D2 binding assay (human)
Description: Binding assays were performed using the disclosed sleep-inducing agents and derivatives selected from those listed in Table 1 in competitive binding assays with known standards for the H1 histamine receptor, and the M1, M2, and M3 muscarinic receptors, alpha 1 and alpha 2 receptors, and D1 and D2 receptors. […]

T4 sequence (P30546 whole entry): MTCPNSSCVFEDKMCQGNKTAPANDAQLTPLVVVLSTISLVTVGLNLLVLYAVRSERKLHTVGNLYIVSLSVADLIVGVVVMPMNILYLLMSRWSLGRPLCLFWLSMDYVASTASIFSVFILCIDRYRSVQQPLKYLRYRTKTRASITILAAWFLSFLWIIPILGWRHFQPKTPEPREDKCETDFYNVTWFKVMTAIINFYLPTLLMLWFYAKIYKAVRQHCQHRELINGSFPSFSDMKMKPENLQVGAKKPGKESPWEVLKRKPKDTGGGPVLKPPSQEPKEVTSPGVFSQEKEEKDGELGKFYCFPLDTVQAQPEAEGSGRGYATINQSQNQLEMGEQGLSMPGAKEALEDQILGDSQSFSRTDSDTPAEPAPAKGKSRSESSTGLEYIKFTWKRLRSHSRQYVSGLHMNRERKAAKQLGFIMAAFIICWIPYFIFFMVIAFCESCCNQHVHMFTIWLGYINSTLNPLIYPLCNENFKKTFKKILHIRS
Chain of hERG channel (Q12809 whole entry): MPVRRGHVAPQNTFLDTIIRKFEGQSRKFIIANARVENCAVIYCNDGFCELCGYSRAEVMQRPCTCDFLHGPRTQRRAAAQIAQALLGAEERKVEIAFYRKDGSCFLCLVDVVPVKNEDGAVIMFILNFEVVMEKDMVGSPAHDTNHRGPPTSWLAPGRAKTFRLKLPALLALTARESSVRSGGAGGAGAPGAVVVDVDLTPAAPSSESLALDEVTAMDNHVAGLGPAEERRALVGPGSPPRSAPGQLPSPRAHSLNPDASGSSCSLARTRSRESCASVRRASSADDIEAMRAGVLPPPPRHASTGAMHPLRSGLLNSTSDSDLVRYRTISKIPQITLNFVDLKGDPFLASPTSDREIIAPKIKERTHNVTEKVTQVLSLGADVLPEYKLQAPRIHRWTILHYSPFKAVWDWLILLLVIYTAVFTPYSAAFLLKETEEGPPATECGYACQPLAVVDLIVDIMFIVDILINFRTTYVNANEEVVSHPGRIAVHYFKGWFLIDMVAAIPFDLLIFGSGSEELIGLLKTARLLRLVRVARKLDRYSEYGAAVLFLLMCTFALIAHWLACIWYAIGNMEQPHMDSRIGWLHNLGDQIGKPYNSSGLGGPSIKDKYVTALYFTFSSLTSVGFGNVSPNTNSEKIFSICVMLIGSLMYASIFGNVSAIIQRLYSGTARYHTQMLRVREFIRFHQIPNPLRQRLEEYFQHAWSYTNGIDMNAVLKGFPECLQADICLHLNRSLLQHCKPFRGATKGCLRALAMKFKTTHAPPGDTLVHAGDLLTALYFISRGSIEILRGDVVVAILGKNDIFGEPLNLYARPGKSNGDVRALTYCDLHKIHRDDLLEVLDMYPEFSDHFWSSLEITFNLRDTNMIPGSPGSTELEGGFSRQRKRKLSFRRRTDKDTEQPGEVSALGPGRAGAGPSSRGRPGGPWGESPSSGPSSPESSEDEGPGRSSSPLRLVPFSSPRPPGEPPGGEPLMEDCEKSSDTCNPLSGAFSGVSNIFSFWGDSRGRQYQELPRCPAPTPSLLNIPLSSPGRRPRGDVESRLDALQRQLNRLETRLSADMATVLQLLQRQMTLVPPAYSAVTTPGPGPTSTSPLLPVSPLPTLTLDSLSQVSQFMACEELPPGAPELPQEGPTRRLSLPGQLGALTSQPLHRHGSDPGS
Chain of Dopamine, D1 (P21728 whole entry): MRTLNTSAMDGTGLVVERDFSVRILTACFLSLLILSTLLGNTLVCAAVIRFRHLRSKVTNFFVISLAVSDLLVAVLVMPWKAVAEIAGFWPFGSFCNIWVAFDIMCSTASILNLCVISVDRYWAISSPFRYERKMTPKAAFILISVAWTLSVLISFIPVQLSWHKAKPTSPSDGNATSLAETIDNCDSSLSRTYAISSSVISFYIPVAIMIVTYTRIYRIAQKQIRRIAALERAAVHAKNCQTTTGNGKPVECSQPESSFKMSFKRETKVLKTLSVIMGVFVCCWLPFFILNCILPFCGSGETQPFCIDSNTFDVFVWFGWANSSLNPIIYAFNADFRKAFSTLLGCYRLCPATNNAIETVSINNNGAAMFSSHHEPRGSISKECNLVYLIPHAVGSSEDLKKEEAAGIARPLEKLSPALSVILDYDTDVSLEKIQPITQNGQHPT
Chain of D2 receptors (P14416 whole entry): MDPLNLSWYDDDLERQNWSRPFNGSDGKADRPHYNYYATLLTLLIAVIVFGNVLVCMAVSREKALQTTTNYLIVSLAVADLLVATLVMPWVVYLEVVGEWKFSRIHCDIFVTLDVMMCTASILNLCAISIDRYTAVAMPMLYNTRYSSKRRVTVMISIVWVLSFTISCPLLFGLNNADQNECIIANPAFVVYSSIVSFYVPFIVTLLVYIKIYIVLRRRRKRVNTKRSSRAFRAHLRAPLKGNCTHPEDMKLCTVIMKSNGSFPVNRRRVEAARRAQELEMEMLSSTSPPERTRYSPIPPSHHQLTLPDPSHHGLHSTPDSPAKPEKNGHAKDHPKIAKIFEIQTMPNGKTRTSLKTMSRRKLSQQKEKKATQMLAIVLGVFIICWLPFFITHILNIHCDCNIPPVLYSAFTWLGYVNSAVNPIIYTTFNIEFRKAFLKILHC
T3 sequence (P20309 whole entry): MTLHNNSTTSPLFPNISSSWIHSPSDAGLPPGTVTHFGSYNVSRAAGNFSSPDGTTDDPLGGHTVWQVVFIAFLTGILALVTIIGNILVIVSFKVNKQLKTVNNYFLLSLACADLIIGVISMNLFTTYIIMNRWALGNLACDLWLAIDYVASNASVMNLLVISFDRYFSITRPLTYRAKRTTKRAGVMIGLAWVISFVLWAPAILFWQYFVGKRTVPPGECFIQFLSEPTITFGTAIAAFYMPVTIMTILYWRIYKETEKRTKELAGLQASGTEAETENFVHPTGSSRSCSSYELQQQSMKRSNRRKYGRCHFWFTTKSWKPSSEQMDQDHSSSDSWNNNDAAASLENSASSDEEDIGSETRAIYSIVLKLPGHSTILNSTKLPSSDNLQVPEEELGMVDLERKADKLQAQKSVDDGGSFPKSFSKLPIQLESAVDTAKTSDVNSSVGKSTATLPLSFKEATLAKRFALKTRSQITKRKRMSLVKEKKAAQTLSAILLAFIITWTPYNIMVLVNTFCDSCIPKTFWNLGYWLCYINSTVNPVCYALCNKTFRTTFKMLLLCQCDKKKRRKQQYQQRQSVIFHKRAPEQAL

| Compound | Ki (alpha 2 receptors) | Ki (M2 muscarinic receptor) | Ki (M1 muscarinic receptor) | hERG at 10 micromolar (% blocking of the hERG channel) (hERG channel) | Ki (M3 muscarinic receptor) | Ki (H1 histamine receptor) | Ki (Dopamine, D1) | Ki (alpha 1 receptors) | Ki (D2 receptors) |
| --- | --- | --- | --- | --- | --- | --- | --- | --- | --- |
| CC(C)(CN1CCN(C2=Nc3ccccc3Oc3ccc(Br)cc32)CC1)C(=O)O [Compound 8] | > 10 µM | > 10 µM | > 10 µM | 49% | > 10 µM | 0.0117 µM | 3.35 µM | > 10 µM | 0.434 µM |
| Cc1ccc2c(c1)C(N1CCN(CC(C)(C)C(=O)O)CC1)=Nc1ccccc1O2 [Compound 10] | > 10 µM | > 10 µM | > 10 µM | 14% | > 10 µM | 0.0396 µM | 3.16 µM | > 10 µM | 1.67 µM |
| COc1ccc2c(c1)C(N1CCN(CC(C)(C)C(=O)O)CC1)=Nc1cc(C)ccc1O2 [Compound 54] | 5.82 µM | > 10 µM | > 10 µM | 6.10% |  | 0.0404 µM | 4.97 µM | 1.21 µM | 1.08 µM |
| CC(C)(CN1CCN(C2=Nc3ccccc3Oc3ccc(O)cc32)CC1)C(=O)O [Compound 14] | > 10 µM | > 10 µM | > 10 µM | 0.30% | > 10 µM | 0.283 µM | 0.942 µM | > 10 µM | > 10 µM |
| COc1ccc2c(c1)C(N1CCN(CC(C)(C)C(=O)O)CC1)=Nc1ccc(Br)cc1O2 [Compound 72] |  |  | > 10 µM | 10.90% | > 10 µM |  | 0.514 µM | > 10 µM | 0.47 µM |
| COc1ccc2c(c1)N=C(N1CCN(CC(C)(C)C(=O)O)CC1)c1cc(C)ccc1O2 [Compound 56] | > 10 µM |  | > 10 µM | 0.30% | > 10 µM | 0.117 µM | > 10 µM | > 10 µM | > 10 µM |
| Cc1ccc2c(c1)N=C(N1CCN(CC(C)(C)C(=O)O)CC1)c1ccc(C)cc1O2 [Compound 52] | > 10 µM | > 10 µM | > 10 µM | 19.80% | > 10 µM | 0.0554 µM |  | > 10 µM | > 10 µM |
| CC(C)(CCN1CCN(C2=Nc3ccccc3Oc3ccc(Cl)cc32)CC1)C(=O)O [Compound 6] | > 10 µM |  |  | 27% |  | 0.0138 µM | 7.17 µM | 2.73 µM | 0.0961 µM |
| COc1ccc2c(c1)C(N1CCN(CC(C)(C)C(=O)O)CC1)=Nc1cc(F)ccc1O2 [Compound 48] |  |  | > 10 µM |  | > 10 µM | 0.0271 µM |  | > 10 µM |  |
| COc1ccc2c(c1)C(N1CCN(CC(C)(C)C(=O)O)CC1)=Nc1ccc(C)cc1O2 [Compound 58] | > 10 µM | > 10 µM | > 10 µM | 0.20% | > 10 µM |  | 2 µM | > 10 µM | 4.03 µM |
| Cc1ccc2c(c1)Oc1ccc(Br)cc1N=C2N1CCN(CC(C)(C)C(=O)O)CC1 [Compound 44] | > 10 µM |  | > 10 µM | 65.90% | > 10 µM | 0.0414 µM |  | > 10 µM |  |
| COc1ccc2c(c1)Oc1ccc(OC)cc1C(N1CCN(CC(C)(C)C(=O)O)CC1)=N2 [Compound 35] | > 10 µM |  | > 10 µM | 0.10% | > 10 µM |  | > 10 µM | > 10 µM | > 10 µM |
| CC(C)(CN1CCN(C2=Nc3cc(Br)ccc3Oc3ccccc32)CC1)C(=O)O [Compound 17] |  | > 10 µM | > 10 µM | 30.10% | > 10 µM | 0.012 µM | 3.45 µM | 1.99 µM | 0.883 µM |
| COc1ccc2c(c1)Oc1ccc(Br)cc1N=C2N1CCN(CC(C)(C)C(=O)O)CC1 [Compound 86] |  |  |  | 86.90% |  |  |  |  |  |
| COc1ccc2c(c1)N=C(N1CCN(CC(C)(C)C(=O)O)CC1)c1ccc(OC)cc1O2 [Compound 42] | > 10 µM |  | > 10 µM | 5.80% | > 10 µM | 1.12 µM | > 10 µM | > 10 µM | > 10 µM |
| Cc1ccc2c(c1)Oc1ccccc1N=C2N1CCN(CC(C)(C)C(=O)O)CC1 [Compound 46] | > 10 µM |  | > 10 µM | 20.40% | > 10 µM | 0.0188 µM | > 10 µM | > 10 µM | > 10 µM |
| Cc1ccc2c(c1)Oc1ccc(C)cc1C(N1CCN(CC(C)(C)C(=O)O)CC1)=N2 [Compound 31] | > 10 µM |  | > 10 µM | 3.80% | > 10 µM | 0.239 µM and 0.337 µM and 0.244 µM | 0.873 µM | > 10 µM | 2.2 µM |
